This test has as its target T1, human FXR (Homo sapiens, UniProt Q96RI1).
T1 construct: expressed in transfected cells
T1 sequence (Q96RI1 1-486): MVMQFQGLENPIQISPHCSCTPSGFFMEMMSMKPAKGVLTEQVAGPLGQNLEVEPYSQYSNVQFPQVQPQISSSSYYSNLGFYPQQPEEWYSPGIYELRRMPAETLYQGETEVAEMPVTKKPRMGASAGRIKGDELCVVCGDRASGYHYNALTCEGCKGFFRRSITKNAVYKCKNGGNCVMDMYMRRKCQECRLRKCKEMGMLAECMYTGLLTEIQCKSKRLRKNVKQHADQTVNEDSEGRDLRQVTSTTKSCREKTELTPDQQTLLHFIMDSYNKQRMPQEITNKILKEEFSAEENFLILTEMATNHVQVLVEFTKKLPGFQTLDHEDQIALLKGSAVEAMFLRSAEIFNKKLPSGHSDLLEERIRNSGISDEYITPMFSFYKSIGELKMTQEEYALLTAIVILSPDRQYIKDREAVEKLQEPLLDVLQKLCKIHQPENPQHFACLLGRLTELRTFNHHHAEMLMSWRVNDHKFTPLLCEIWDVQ
The test is described as follows: FXR reporter assay (cellular FXR activities). The conditions noted are these: for EC50: FXR reporter cells, 24 hours incubation, luciferase, read-out: Reporter Cell EC50; for Emax: read-out: Emax (%) (GW4064 Emax = 100%). Type of test: cell-based. On the procedure: FXR reporter assay was performed to measure cellular FXR activities of the compounds in the present invention. FXR reporter cells with high expression level of human FXR were seeded into 96-well cell culture plates, and incubated for 1-2 hours at 37° C. under 5% CO2 atmosphere. The invented compounds diluted in DMSO with various concentrations were added to the 96-well cell culture plates, and they were incubated for 24 hours at 37° C. under 5% CO2 atmosphere. After incubation, we calculate EC50 by using luciferase substrate.
(In general: A reporter such as luciferase makes a cellular process visible.)

Consider `Cc1nc2cc(C#Cc3ccc(OCc4c(-c5c(Cl)cccc5Cl)noc4C4CC4)cc3Cl)cc(C(=O)O)c2nc1C` [Compound I-109, 7-((2-chloro-4-((5-cyclopropyl-3-(2,6-dichlorophenyl)isoxazol-4-yl)methoxy)phenyl)ethynyl)-2,3-dimethylquinoxaline-5-carboxylic acid], for which the EC50 (commonly the concentration giving half of the maximal effect) was 20 to 60 nM and the Emax – broadly, the maximal effect, on the per cent scale that the assay sets – was 100%.

For the compound `O=C(O)c1cc(C#Cc2ccc(OCc3c(-c4c(Cl)cccc4Cl)noc3C3CC3)cc2Cl)cc(N2CCC2)c1` [Compound I-55, 3-(azetidin-1-yl)-5-((2-chloro-4-((5-cyclopropyl-3-(2,6-dichlorophenyl)isoxazol-4-yl)methoxy)phenyl)ethynyl)benzoic acid], the concentration giving a half-maximal response (EC50) lay within 20 to 60 nM and the Emax was > 100%.

For the compound `COC(=O)c1cccc(C#Cc2ccc(OCc3c(-c4c(Cl)cccc4Cl)noc3C3CC3)cc2Cl)c1` [Compound I-7, methyl 3-((2-chloro-4-((5-cyclopropyl-3-(2,6-dichlorophenyl)isoxazol-4-yl)methoxy)phenyl)ethynyl)benzoate], the EC50 was > 1000 nM and the Emax came to 85%.

For the compound `C#Cc1ccc(OCc2c(-c3c(Cl)cccc3Cl)noc2C2CC2)cc1Cl` [Compound I-5, 4-((3-chloro-4-ethynylphenoxy)methyl)-5-cyclopropyl-3-(2,6-dichlorophenyl)isoxazole], the EC50 is 200 to 1000 nM and the Emax amounted to 84%.

Consider `O=C(O)c1cc(C#Cc2ccc(OCc3c(-c4c(Cl)cccc4Cl)noc3C3CC3)cc2Cl)cc2ncoc12` [Compound I-102, 5-((2-chloro-4-((5-cyclopropyl-3-(2,6-dichlorophenyl)isoxazol-4-yl)methoxy)phenyl)ethynyl)benzo[d]oxazole-7-carboxylic acid], for which the EC50 lay within 200 to 1000 nM and the Emax is > 100%.

On to `CS(=O)(=O)Nc1cccc(C#Cc2ccc(OCc3c(-c4c(Cl)cccc4Cl)noc3C3CC3)cc2Cl)c1` [Compound I-13, N-(3-((2-chloro-4-((5-cyclopropyl-3-(2,6-dichlorophenyl)isoxazol-4-yl)methoxy)phenyl)ethynyl)phenyl)methanesulfonamide], for which the EC50 lay within 200 to 1000 nM and the Emax was found to be 90%.

Regarding `CCOC(=O)Nc1cccc(C#Cc2ccc(OCc3c(-c4c(Cl)cccc4Cl)noc3C3CC3)cc2Cl)c1` [Compound I-11, ethyl (3-((2-chloro-4-((5-cyclopropyl-3-(2,6-dichlorophenyl)isoxazol-4-yl)methoxy)phenyl)ethynyl)phenyl)carbamate], the EC50 was > 1000 nM and the Emax was 90%.

For `CC(C)c1nc2c(C(=O)O)cc(C#Cc3ccc(OCc4c(-c5c(Cl)cccc5Cl)noc4C4CC4)cc3Cl)cc2o1` [Compound I-115, 6-((2-chloro-4-((5-cyclopropyl-3-(2,6-dichlorophenyl)isoxazol-4-yl)methoxy)phenyl)ethynyl)-2-isopropylbenzo[d]oxazole-4-carboxylic acid], the EC50 fell in the range of 20 to 60 nM and the Emax was 97%.

Consider `CCCc1nc2c(C(=O)O)cc(C#Cc3ccc(OCc4c(-c5c(Cl)cccc5Cl)noc4C4CC4)cc3Cl)cc2o1` [Compound I-114, 6 ((2-chloro-((5-cyclopropyl-3-(2,6-dichlorophenyl)isoxazol-4-yl)methoxy)phenyl)ethynyl)-2-propylbenzo[d]oxazole-4-carboxylic acid], for which the EC50 lay in the range of 20 to 60 nM and the maximal response (Emax) is > 100%.

Regarding `CN(C)c1ccc(C(=O)O)cc1C#Cc1ccc(OCc2c(-c3c(Cl)cccc3Cl)noc2C2CC2)cc1Cl` [Compound I-26, 3-((2-chloro-4-((5-cyclopropyl-3-(2,6-dichlorophenyl)isoxazol-4-yl)methoxy)phenyl)ethynyl)-4-(dimethylamino)benzoic acid], the EC50 lay within 200 to 1000 nM and the Emax was > 100%.

As to `O=C(O)c1cc(C#Cc2ccc(OCc3c(-c4c(Cl)cccc4Cl)noc3C3CC3)cc2Cl)cc2[nH]ccc12` [Compound I-101, 6-((2-chloro-4-((5-cyclopropyl-3-(2,6-dichlorophenyl)isoxazol-4-yl)methoxy)phenyl)ethynyl)-1H-indole-4-carboxylic acid], the concentration for a half-maximal effect (EC50) is ≤ 20 nM and the Emax stood at 97%.

`O=C(O)c1cc(C#Cc2ccc(OCc3c(-c4c(Cl)cccc4Cl)noc3C3CC3)cc2Cl)cc(CN2CCOCC2)c1` [Compound I-50, 3-((2-chloro-4-((5-cyclopropyl-3-(2,6-dichlorophenyl)isoxazol-4-yl)methoxy)phenyl)ethynyl)-5-(morpholinomethyl)benzoic acid]: the EC50 lay within 20 to 60 nM and the Emax was > 100%.

`O=C(O)c1cccc(C#Cc2ccc(OCc3c(-c4c(Cl)cccc4Cl)noc3C3CC3)cc2Cl)c1Cl` [Compound I-35, 2-chloro-3-((2-chloro-4-((5-cyclopropyl-3-(2,6-dichlorophenyl)isoxazol-4-yl)methoxy)phenyl)ethynyl)benzoic acid]: the EC50 was in the range of 200 to 1000 nM and the Emax amounted to 86%.

As for `Cc1c(N)cc(C#Cc2ccc(OCc3c(-c4c(Cl)cccc4Cl)noc3C3CC3)cc2Cl)cc1C(=O)O` [Compound I-71, 3-amino-5-((2-chloro-4-((5-cyclopropyl-3-(2,6-dichlorophenyl)isoxazol-4-yl)methoxy)phenyl)ethynyl)-2-methylbenzoic acid], the EC50 was 200 to 1000 nM and the Emax is > 100%.

Turning to `O=C(Nc1cc(C#Cc2ccc(OCc3c(-c4c(Cl)cccc4Cl)noc3C3CC3)cc2Cl)cc(C(=O)O)c1)OCCO` [Compound I-81, 3-((2-chloro-((5-cyclopropyl-3-(2,6-dichlorophenyl)isoxazol-4-yl)methoxy)phenyl)ethynyl)-5-(((2-hydroxyethoxy)carbonyl)amino)benzoic acid], the EC50 fell in the range of 200 to 1000 nM and the Emax was > 100%.

For the compound `CN(C)CCn1ccc2c(C#Cc3ccc(OCc4c(-c5c(Cl)cccc5Cl)noc4C4CC4)cc3Cl)cc(C(=O)O)cc21` [Compound I-92, 4-((2-chloro-4-((5-cyclopropyl-3-(2,6-dichlorophenyl)isoxazol-4-yl)methoxy)phenyl)ethynyl)-1-(2-(dimethylamino)ethyl)-1H-indole-6-carboxylic acid], the EC50 lay within 20 to 60 nM and the Emax was 87%.

For the compound `CCNC(=O)Nc1cc(C#Cc2ccc(OCc3c(-c4c(Cl)cccc4Cl)noc3C3CC3)cc2Cl)cc(C(=O)O)c1` [Compound I-72, 3-((2-chloro-4-((5-cyclopropyl-3-(2,6-dichlorophenyl)isoxazol-4-yl)methoxy)phenyl)ethynyl)-5-(3-ethylureido)benzoic acid], the EC50 is 200 to 1000 nM and the Emax was > 100%.

For `CCN(CC)c1cc(C#Cc2ccc(OCc3c(-c4c(Cl)cccc4Cl)noc3C3CC3)cc2Cl)cc(C(=O)O)c1` [Compound I-24, 3-((2-chloro-4-((5-cyclopropyl-3-(2,6-dichlorophenyl)isoxazol-4-yl)methoxy)phenyl)ethynyl)-5-(diethylamino)benzoic acid], the EC50 lay within 20 to 60 nM and the Emax was > 100%.

`CN(C)c1cc(C(=O)O)ccc1C#Cc1ccc(OCc2c(-c3c(Cl)cccc3Cl)noc2C2CC2)cc1Cl` [Compound I-22, 4-((2-chloro-4-((5-cyclopropyl-3-(2,6-dichlorophenyl)isoxazol-4-yl)methoxy)phenyl)ethynyl)-3-(dimethylamino)benzoic acid]: the EC50 was in the range of 60 to 200 nM and the Emax is 93%.
